Like-named read-outs stand apart in the source and are kept apart here.
Legend:
[1] = Hepatic microsome stability assay, DLM; format: in vitro ADME, dog; conditions: beagle, dog, liver microsomes, pH 7.4; 1 μmol/L, 0.2 g/L microsomes, NADPH
Description: (§1) A hepatic microsome stability assay was conducted to investigate the metabolic disposition of ammoxetine. In this assay, 100 μL of ammoxetine (2.5 μmol/L) was incubated at 37°C with 100 μL of liver microsomes (RLM, DLM, MLM, or HLM) formulated in a 5 mmol/L dipotassium hydrogen phosphate (K2HPO4) buffer at pH 7.4. The concentration of microsomes was 0.5 g/L. To initiate the incubations, 50 μL of NADPH solution preincubated at 37°C was added. […] Parallel triplicate samples were prepared for each time point, including 0, 2, 5, 10, 15, 30, 60, 90, and 120 min. To stop the reactions at each time point, 250 μL of ice-cold precipitating agent (acetonitrile/methanol, 1:1, v/v) containing 500 ng/mL of L-phencynonate (IS) was added to the incubation mixture. The samples were vortexed for 2 min at 4°C and then centrifuged at 13,800×g for 10 min. The supernatants were analyzed using an LC-MS-MS approach. […]
(§2) In Formula 3, t1/2 (min) represents the half-life of ammoxetine in liver microsomes. It is calculated by dividing −0.693 by the resulting slope (k e) obtained from a natural logarithm plot of the remaining concentration of ammoxetine against incubation time. […]

DLM = assay: Hepatic microsome stability assay, DLM; format: in vitro ADME, dog; conditions: predicted hepatic clearance
Description: as §1, §2

[2] = Hepatic microsome stability assay, MLM; format: in vitro ADME, monkey; conditions: monkey, liver microsomes, pH 7.4; 1 μmol/L, 0.2 g/L microsomes, NADPH
Description: as §1, §2

MLM = assay: Hepatic microsome stability assay, MLM; format: in vitro ADME, monkey; conditions: predicted hepatic clearance
Description: as §1, §2

PK study in rats = format: in vivo, SD rats; conditions: rat, plasma; for CL/F: read-out: CLz/F (converted); for MRT last: read-out: MRT(0-t); for MRT inf: read-out: MRT(0-∞); for Vd/F: read-out: Vz/F; for half-life: read-out: t1/2z (converted)
Description: For the PK studies in rats and dogs, a total of 18 SD rats and 15 male beagle dogs were randomly divided into three groups, with six rats or five dogs per group, respectively. Prior to the experiments, all animals underwent a 12-h fasting period, while having free access to water. The animals were administered single oral doses of ammoxetine in three different dose levels: 8 mg/kg, 20 mg/kg, and 50 mg/kg for rats, and 2 mg/kg, 5 mg/kg, and 12.5 mg/kg for dogs, representing low, medium, and high doses. Serial blood samples were collected from the rats at 0, 2, 5, 15, and 30 min, as well as 1, 2, 4, 6, 8, 12, and 24 h post-dosing. For the dogs, blood samples were collected at 0, 5, 15, 30, and 45 min, as well as 1, 2, 4, 6, 8, 12, and 24 h post-dosing. Approximately 0.3 mL of blood was collected from the rats, while 2 mL of blood was collected from the dogs. The blood samples were collected into heparinized tubes. Following centrifugation, plasma samples were obtained and stored at −30°C until further analysis.
To determine the concentration of ammoxetine, 100 μL of L-phencynonate (IS, 50 ng/mL) and 300 μL of methanol were added to 100 μL of plasma samples from rats or dogs. After thorough vortexing, the mixture was centrifuged at 13,800×g for 10 min. The supernatants were then subjected to analysis using LC-MS-MS methods. PK parameters were calculated using DAS (Drug And Statistics for Windows) version 2.0, developed by the Shanghai University of Traditional Chinese Medicine, Shanghai, China. The F was determined by comparing the plasma area under the concentration-time curve (AUC) values after oral (p.o.) and intravenous (i.v.) administration of ammoxetine. F was calculated using the formula: F=AUCp.o./AUCi.v.×100% . Statistical analyses were performed using OriginPro 8.6 software. Paired sample or student’s t-test, as well as one-way ANOVA, were employed to compare the means of two or three groups, with a significance level set at p < 0.05.

CYP 2D6 = CYP 2D6 (Homo sapiens, UniProt P10635); assay: Phenotyping with recombinant human CYP 2D6; format: in vitro ADME; design: purchased BD (Woburn, USA); conditions: 5 μmol/L, 25 pmol/mL CYP, 1 h
Chain of CYP 2D6 (P10635 whole entry): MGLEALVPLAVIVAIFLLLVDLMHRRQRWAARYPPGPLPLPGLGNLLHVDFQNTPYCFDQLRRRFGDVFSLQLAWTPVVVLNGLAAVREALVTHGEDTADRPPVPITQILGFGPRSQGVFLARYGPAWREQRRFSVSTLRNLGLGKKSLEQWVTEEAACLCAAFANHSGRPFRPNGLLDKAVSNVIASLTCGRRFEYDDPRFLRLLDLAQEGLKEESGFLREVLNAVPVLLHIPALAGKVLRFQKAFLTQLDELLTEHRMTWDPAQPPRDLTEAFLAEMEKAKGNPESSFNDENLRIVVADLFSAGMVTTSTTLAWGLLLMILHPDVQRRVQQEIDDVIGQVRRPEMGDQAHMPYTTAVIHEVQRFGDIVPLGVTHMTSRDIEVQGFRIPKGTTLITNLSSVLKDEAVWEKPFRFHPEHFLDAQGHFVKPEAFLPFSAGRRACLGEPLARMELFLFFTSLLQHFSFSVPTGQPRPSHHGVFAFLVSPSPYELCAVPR
Description: Ammoxetine (final concentration 5 μmol/L) was incubated with recombinant human CYP 3A4, CYP 1A2, CYP 2C9, CYP 2C19, and CYP 2D6 (final concentration 25 pmol/mL) in a 5 mmol/L K2HPO4 buffer at pH 7.4. The incubations were performed in quintuplicate. NADPH (final concentration 1 mmol/L) was added to initiate the incubation process. The mixture was then incubated at 37°C for 1 h. To stop the reaction, 200 μL of ice-cold acetonitrile/methanol (1:1, v/v) containing 500 ng/mL of L-phencynonate (IS) was added. The samples were vortexed for 2 min and centrifuged at 13,800×g and 4°C for 10 min. The supernatants obtained were analyzed using an LC-MS-MS method. To establish appropriate controls, zero-time controls and blank controls in the absence of NADPH were set up in parallel.

CNCC[C@H](Oc1cccc2c1OCO2)c1cccs1 [ammoxetine]
half-life at 1 μmol/L [1]: 2.31 ± 0.0493 h
CL h (DLM): 16.64 ± 0.17 mL/min/kg
half-life at 1 μmol/L [2]: 7.57 ± 0.12 min
CL h (MLM): 40.73 ± 0.04 mL/min/kg
AUC(0-inf) (PK study in rats; SD, 8 mg/kg single oral dose): 1370 ng·h/mL
AUC(0-t) (PK study in rats; SD, 8 mg/kg single oral dose): 1370 ng·h/mL
Cmax (PK study in rats; SD, 8 mg/kg single oral dose): 287 ± 50.8 ng/mL
CL/F (PK study in rats; SD, 8 mg/kg single oral dose): 100 mL/min/kg
MRT last (PK study in rats; SD, 8 mg/kg single oral dose): 4.38 ± 0.47 h
MRT inf (PK study in rats; SD, 8 mg/kg single oral dose): 4.49 ± 0.44 h
Tmax (PK study in rats; SD, 8 mg/kg single oral dose, read-out: Tmax): 0.75 ± 0.27 h
Vd/F (PK study in rats; SD, 8 mg/kg single oral dose): 24.4 ± 4.48 L/kg
half-life (PK study in rats; SD, 8 mg/kg single oral dose): 2.87 ± 0.59 h
AUC(0-inf) (PK study in rats; SD, 20 mg/kg single oral dose): 3400 ng·h/mL
AUC(0-t) (PK study in rats; SD, 20 mg/kg single oral dose): 3200 ng·h/mL
Cmax (PK study in rats; SD, 20 mg/kg single oral dose): 400 ± 246 ng/mL
CL/F (PK study in rats; SD, 20 mg/kg single oral dose): 108 mL/min/kg
MRT last (PK study in rats; SD, 20 mg/kg single oral dose): 6.73 ± 1.25 h
MRT inf (PK study in rats; SD, 20 mg/kg single oral dose): 8.57 ± 3.58 h
Tmax (PK study in rats; SD, 20 mg/kg single oral dose, read-out: Tmax): 1.58 ± 1.39 h
Vd/F (PK study in rats; SD, 20 mg/kg single oral dose): 53.5 ± 29 L/kg
half-life (PK study in rats; SD, 20 mg/kg single oral dose): 5.61 ± 2.59 h
AUC(0-inf) (PK study in rats; SD, 50 mg/kg single oral dose): 12900 ng·h/mL
AUC(0-t) (PK study in rats; SD, 50 mg/kg single oral dose): 11000 ng·h/mL
Cmax (PK study in rats; SD, 50 mg/kg single oral dose): 987 ± 362 ng/mL
CL/F (PK study in rats; SD, 50 mg/kg single oral dose): 72.3 mL/min/kg
MRT last (PK study in rats; SD, 50 mg/kg single oral dose): 7.74 ± 0.52 h
MRT inf (PK study in rats; SD, 50 mg/kg single oral dose): 11.8 ± 7.34 h
Tmax (PK study in rats; SD, 50 mg/kg single oral dose, read-out: Tmax): 3.83 ± 2.7 h
Vd/F (PK study in rats; SD, 50 mg/kg single oral dose): 40.3 ± 16.4 L/kg
half-life (PK study in rats; SD, 50 mg/kg single oral dose): 7.51 ± 5.7 h
Tmax (PK study in rats; Sprague-Dawley (SD), oral 8, 20 and 50 mg/kg, read-out: Tmax values, range): 0.75 to 3.83 h
Transformation ratio% (CYP 2D6): 14.09±1.89%
residuary concentration of ammoxetine, Mean±SD (CYP 2D6): 5.89±0.13

— paper PMC11579541, “In vitro, in vivo, and in silico approaches for evaluating the preclinical DMPK profiles of ammoxetine, a novel chiral serotonin and norepinephrine reuptake inhibitor” (Frontiers in Pharmacology, 2024)
